Patent publication US12391660B2, “Heteroaromatic acetamide derivative, and preparation and use thereof” (Hangzhou Westan Pharmaceutical Technology Co., Ltd, priority 2019, dated 2025)

The compounds below were run against human TRPA1 (Homo sapiens (Human), UniProt O75762) (assay: FLIPR assay of inhibitory activity on human TRPA1 (calcium ion flux fluorescence)). Details: HEK293 cells stably expressing human TRPA1.
Assay type: cell-based
Method: 1. FLIPR Assay of Inhibitory Activity on Human TRPA1
A calcium ion flux fluorescence method (FLIPR assay) was adopted to measure the inhibitory activity of compounds on human TRPA1 channel. The literature reports of Lee and Chen et al. may be referred to for the method [Lee et al. Br J Pharmacol 2008, 153 (8): 1739-1749] [Chen et al. Pain 2011, 152(5):1165-72].
A HEK293 recombinant cell strain stably expressing human TRPA1 (Creative Biogene, NY) was cultured in DMEM (Thermo Fisher Scientific, Shanghai) medium (containing 10% calf serum, 5 μg/ml Blasticidin and 400 ug/ml G418). The incubator was under a condition of 37° C. and air humidity with 5% CO2.
TRPA1 cells were seeded in a 96-well analysis plate at a density of 75,000 cells per well (100 ul/well), and cultured overnight in an incubator at 37° C. and 5% CO2. On the second day, incubation was continued overnight under the same condition to induce the expression of TRPA1 after the culture medium in each well was poured out and a fresh supplement with the same culture medium containing 0.1 μg/ml Tetracycline was added. The further next day, the culture medium was pour out, a DMEM culture solution (also containing 2.5 mM Probenicid) containing 5 μM Fluo-4 AM (Molecular Probes) was added to each well, and incubation was conducted at 37° C. for 1 hour.
The compound was dissolved in 100% DMSO to prepare a 30 mM stock solution which was stored at −20° C. On the day of use, the compound stock solution was thawed at room temperature. Each compound was subjected to 1:5 serial dilution using DMSO medium at a starting concentration of 30 μM with 9 concentration points on a 96-well plate. Each compound was diluted in duplicate for testing. Ruthenium Red was used as the positive control compound and the same dilution was carried out at a starting concentration of 3 μM.
The cell analysis plate was placed in an FLIPR instrument […], and the compound in the compound plate was added to the corresponding hole on the cell analysis plate (First addition) via an automatic program, and the calcium ion fluorescence signal was recorded to determine whether the compound had agonistic activity. After 10 minutes, CaCl2 (Second addition) was added a final concentration of 3 mM to each well to stimulate intracellular calcium flux signals. Ca^++-dependent fluorescence signal was monitored continuously at 538 nm wavelength to analyze the inhibitory activity of the compounds.
The data was collected and analyzed using a FLIPR program. The fluorescence peak value was used to evaluate the inhibitory (or agonistic) activity of the compounds at each concentration. EXCEL and PRISM programs were used to calculate the IC50 value of the compounds.

Chain of human TRPA1 (O75762 whole entry): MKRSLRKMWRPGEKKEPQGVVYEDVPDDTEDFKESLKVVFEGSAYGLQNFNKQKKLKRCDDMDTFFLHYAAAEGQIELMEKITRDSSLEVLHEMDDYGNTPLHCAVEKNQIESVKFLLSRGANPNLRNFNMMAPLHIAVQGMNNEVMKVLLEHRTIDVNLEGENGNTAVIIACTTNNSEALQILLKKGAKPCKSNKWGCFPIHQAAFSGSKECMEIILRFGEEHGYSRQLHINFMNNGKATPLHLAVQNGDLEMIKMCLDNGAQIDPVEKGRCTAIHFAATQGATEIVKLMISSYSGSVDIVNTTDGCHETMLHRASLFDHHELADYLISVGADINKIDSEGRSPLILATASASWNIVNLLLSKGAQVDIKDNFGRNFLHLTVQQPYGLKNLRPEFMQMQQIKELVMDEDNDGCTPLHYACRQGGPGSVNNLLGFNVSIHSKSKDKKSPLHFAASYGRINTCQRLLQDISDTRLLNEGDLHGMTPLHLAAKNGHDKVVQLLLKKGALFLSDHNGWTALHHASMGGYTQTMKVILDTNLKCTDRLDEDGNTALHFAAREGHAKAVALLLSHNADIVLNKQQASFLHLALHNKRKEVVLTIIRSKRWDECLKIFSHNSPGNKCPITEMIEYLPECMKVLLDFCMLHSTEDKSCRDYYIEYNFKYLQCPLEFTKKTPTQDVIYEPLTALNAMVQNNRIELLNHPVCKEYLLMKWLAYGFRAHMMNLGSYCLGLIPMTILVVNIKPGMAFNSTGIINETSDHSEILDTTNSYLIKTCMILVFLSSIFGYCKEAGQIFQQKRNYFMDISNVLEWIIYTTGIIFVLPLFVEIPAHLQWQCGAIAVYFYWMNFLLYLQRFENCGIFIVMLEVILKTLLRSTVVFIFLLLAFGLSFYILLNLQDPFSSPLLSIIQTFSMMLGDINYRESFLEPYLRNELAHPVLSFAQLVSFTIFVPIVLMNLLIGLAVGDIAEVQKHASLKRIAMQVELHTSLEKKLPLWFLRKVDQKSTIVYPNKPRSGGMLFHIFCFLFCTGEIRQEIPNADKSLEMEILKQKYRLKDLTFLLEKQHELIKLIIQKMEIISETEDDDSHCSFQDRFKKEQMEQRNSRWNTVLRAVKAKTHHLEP

IC50	Structure (SMILES)
5210 nM	CC(C)(C)C1CCN(C(=O)C2(Nc3ccc(C#N)cc3)CCC2)CC1 [Compound 37, 4-((1-(4-(tert-butyl)piperidine-1-carbonyl)cyclobutyl)amino) benzonitrile]
10200 nM	CC(C)(C)C1CCN(C(=O)C2(Nc3ccc(C#N)cc3)CC2)CC1 [Compound 38, 4-((1-(4-(tert-butyl)piperidine-1-carbonyl)cyclopropyl)amino)benzonitrile]
1080 nM	CC(C)(C)C1CCN(C(=O)C2(Nc3nc(C#N)cs3)CCCC2)CC1 [Compound 39, 2-((1-(4-(tert-butyl)piperidine-1-carbonyl)cyclopentyl)amino) thiazole-4-carbonitrile]
950 nM	CC(C)(C)C1CCN(C(=O)C2(Nc3ncc(C#N)s3)CCCC2)CC1 [Compound 40, 2-((1-(4-(tert-butyl)piperidine-1-carbonyl)cyclopentyl)amino)thiazole-5-carbonitrile]
3070 nM	CC(C)(C)C1CCN(C(=O)C2(Nc3nc(C#N)co3)CCCC2)CC1 [Compound 41, 2-((1-(4-(tert-butyl)piperidine-1-carbonyl)cyclopentyl)amino) oxazole-4-carbonitrile]
4650 nM	Cn1cc(NC2(C(=O)N3CCC(C(C)(C)C)CC3)CCCC2)nc1C#N [Compound 42, 4-((1-(4-(tert-butyl)piperidine-1-carbonyl)cyclopentyl)amino) -1-methyl-1H-imidazole-2-carbonitrile]
91 nM	CC(C)(C)C1CCN(C(=O)C(Nc2ccc(C#N)cc2)C(C)(C)C)CC1 (stereo not drawn) [Compound 43, 4-((1-(4-(tert-butyl)piperidine-1-carbonyl)tert-butyl)amino) benzonitrile]
72 nM	CC(C)(C)C1CCN(C(=O)C2(Nc3ccc(C(F)(F)F)cc3)CCCC2)CC1 [Compound 45]
108 nM	CC(C)(C)C1CCN(C(=O)C2(Nc3ccc(Cl)cc3)CCCC2)CC1 [Compound 46, 4-((1-(4-(tert-butyl)piperidine-1-carbonyl)cyclopentyl)amino) chlorobenzene]
65 nM	Cc1cccc(N2CCN(C(=O)C3(Oc4ccc(C#N)cc4)CCCC3)CC2)c1 [Compound 48, 4-((1-(4-(m-methylphenyl)piperazine-1-carbonyl)cyclopentyl)oxy)benzonitrile]
325 nM	N#Cc1ccc(OC2(C(=O)N3CCN(c4ccc(C(F)(F)F)cc4)CC3)CCCC2)cc1 [Compound 49]
182 nM	CC(C)(C)C(Oc1ccc(C#N)cc1)C(=O)N1CCN(c2cccc(C(F)(F)F)n2)CC1 (stereo not drawn) [Compound 51]
465 nM	N#Cc1ccc(OC2(C(=O)N3CCN(c4ccc(C(F)(F)F)nn4)CC3)CCCC2)cc1 [Compound 52, 4-((1-(4-(6-(trifluoromethyl)pyridazin-3-yl)piperazine-1-carbonyl)cyclopentyl)oxy)ben zonitrile]
862 nM	O=C(N1CCN(c2ccc(C(F)(F)F)nn2)CC1)C1(Oc2ccc([N+](=O)[O-])cc2)CCCC1 [Compound 53, 4-((1-(4-(6-(trifluoromethyl)pyridazin-3-yl)piperazine-1-carbonyl)cyclopentyl)oxy)nitro benzene]
91 nM	N#Cc1ccc(OC2(C(=O)N3CC4CCC3CN4c3cccc(C(F)(F)F)n3)CCCC2)cc1 (stereo not drawn) [Compound 55, 4-((1-(5-(6-(trifluoromethyl)pyridin-2-yl)-2,5-diazabicyclo [2.2.2]octane-2-carbonyl)cyclopentyl)oxy)benzonitrile]
76 nM	CC(C)(C)C1CCN(C(=O)C2(Oc3ccc(C#N)cc3)CCCC2)CC1 [Compound 56, 4-((1-(4-(tert-butyl)piperidine-1-carbonyl)cyclopentyl)oxy) benzonitrile]
51 nM	CC(C)(C)N1CCN(C(=O)C2(Oc3ccc(C#N)cc3)CCCC2)CC1 [Compound 57, 4-((1-(4-(tert-butyl)piperazine-1-carbonyl)cyclopentyl)oxy) benzonitrile]
620 nM	N#Cc1ccc(OC2(C(=O)N3CCN(c4cccc(C(F)(F)F)n4)CC3)CCC2)cc1 [Compound 58, 4-((1-(4-(6-(trifluoromethyl)pyridin-2-yl)piperazine-1-carbonyl)cyclobutyl)oxy)benzo nitrile]

IC50	Structure (SMILES)
847 nM	N#Cc1ccc(OC2(C(=O)N3CCN(c4ccc(C(F)(F)F)nn4)CC3)CCCC2)cc1Cl [Compound 60, 2-chloro-4-((1-(4-(6-(trifluoromethyl)pyridazin-3-yl)piperazine-1-carbonyl)cyclopentyl)oxy)benzonitrile]
560 nM	N#Cc1ccc(OC(C(=O)N2CCN(c3ccc(C(F)(F)F)nn3)CC2)c2ccccc2)cc1 (stereo not drawn) [Compound 63]
552 nM	CC(C)(C)N1CCN(C(=O)C2(Oc3ccc(C(F)(F)F)cc3)CCCC2)CC1 [Compound 64, 4-((1-(4-(tert-butyl)piperazine-1-carbonyl)cyclopentyl)oxy) trifluoromethylbenzene]
1080 nM	Cn1cc(C#N)cc1OC1(C(=O)N2CCC(C(C)(C)C)CC2)CCCC1 [Compound 65, 5-((1-(4-(tert-butyl)piperidine-1-carbonyl)cyclopentyl)oxy)-1-methyl-1H-pyrrole-3-car bonitrile]
105 nM	CC(C)(C)N1CCN(C(=O)C2(Sc3ccc(C#N)cc3)CCCC2)CC1 [Compound 66, 4-((1-(4-(tert-butyl)piperazine-1-carbonyl)cyclopentyl)sul-fanyl)benzonitrile]
3780 nM	Cn1ccc2cc(SC3(C(=O)N4CCC(C(C)(C)C)CC4)CCCC3)ccc21 [Compound 67, 5-((1-(4-(tert-butyl)piperidine-1-carbonyl)cyclopentyl)sulfanyl)-1-methyl-1H-indole]
112 nM	N#Cc1ccc2c(c1)CC(C(=O)N1CCN(c3cccc(C(F)(F)F)n3)CC1)N2 (stereo not drawn) [Compound 68, 2-(4-(6-(trifluoromethyl)pyridin-2-yl)piperazine-1-carbonyl)-5-cyanoindoline]
386 nM	N#Cc1ccc2c(c1)CC(C(=O)N1CCN(c3nccc(C(F)(F)F)n3)CC1)N2 (stereo not drawn) [Compound 69, 2-(4-(4-(trifluoromethyl)pyrimidin-2-yl)piperazine-1-carbonyl)-5-cyanoindoline]
92 nM	N#Cc1ccc2c(c1)CC(C(=O)N1CCN(c3cccc(C(F)(F)F)c3)CC1)N2 (stereo not drawn) [Compound 70, 2-(4-(3-(trifluoromethyl)phenyl)piperazine-1-carbonyl)-5-cyanoindoline]
866 nM	N#Cc1ccc2[nH]c(C(=O)N3CCN(c4cccc(C(F)(F)F)n4)CC3)cc2c1 [Compound 71, 2-(4-(6-(trifluoromethyl)pyridin-2-yl)piperazine-1-carbonyl)-1H-5-cyanoindole]
971 nM	N#Cc1ccc2[nH]c(C(=O)N3CCN(c4ccc(C(F)(F)F)cn4)CC3)cc2c1 [Compound 72, 2-(4-(5-(trifluoromethyl)pyridin-2-yl)piperazine-1-carbonyl)-1H-5-cyanoindole]
261 nM	N#Cc1ccc2c(c1)CC(C(=O)N1CCN(c3cccc(C(F)(F)F)n3)CC1)O2 (stereo not drawn) [Compound 73, 2-(4-(6-(trifluoromethyl)pyridin-2-yl)piperazine-1-carbonyl)-2,3-2H-5-cyanobenzofuran]
116 nM	O=C(C1Cc2cc(Cl)ccc2O1)N1CCN(c2cccc(C(F)(F)F)n2)CC1 (stereo not drawn) [Compound 74, 2-(4-(6-(trifluoromethyl)pyridin-2-yl)piperazine-1-carbonyl)-2,3-2H-5-chlorobenzofuran]
285 nM	Cc1cccc(N2CCN(C(=O)C3Cc4cc(C#N)ccc4O3)CC2)n1 (stereo not drawn) [Compound 75]
91 nM	CC(C)(C)N1CCN(C(=O)C2Cc3cc(C#N)ccc3N2)CC1 (stereo not drawn) [Compound 77, 2-(4-(tert-butyl)piperazine-1-carbonyl)-5-cyanoindoline]
82 nM	CC(C)(C)C1CCN(C(=O)C2Cc3cc(C#N)ccc3O2)CC1 (stereo not drawn) [Compound 79, 2-(4-(tert-butyl)piperidine-1-carbonyl)-2,3-2H-5-cyanoben-zofuran]
68 nM	CC(C)(C)N1CCN(C(=O)C2Cc3cc(C#N)ccc3O2)CC1 (stereo not drawn) [Compound 80, 2-(4-(tert-butyl)piperazine-1-carbonyl)-2,3-2H-5-cyano-benzofuran]

Structure (SMILES)	IC50
N#Cc1ccc(OC2(C(=O)N3CCN(c4cccc(C(F)(F)F)n4)CC3)CCCC2)cc1 [Compound 47, 4-((1-(4-(6-(trifluoromethyl)pyridin-2-yl)piperazine-1-carbonyl)cyclopentyl)oxy)benzonitrile]	38 nM
